Measurements published in patent publication US9283218B2, “Solid dispersion with improved solubility comprising tetrazole derivative as an active ingredient” (HANMI PHARM. CO., LTD., priority 2012, dated 2016).
Counter-ions that a name gives are not always drawn.

Assays:
[1] = Dissolution characteristics of HM30181A in mixed solvents of MC, EtOH and DW; format: physicochemical
[2] = Solubilities of active ingredient in various solvents (excess added, shaken 2 hours, centrifuged, HPLC); format: physicochemical
Procedure: In order to find out the most suitable solvent for the solid dispersion, an excessive amount of HM30181A, as an active ingredient, was added to a solvent, shook for 2 hours, and then the resulting mixture was centrifuged and analyzed by HPLC to measure the solubility. Solvents used for solubility test were MC, methanol, EtOH, hexane, diethyl ether, isopropyl alcohol, acetone and DW.

[3] = Composition 1: HM30181A 15 mg, methylene chloride 450 mg, ethanol 50 mg, distilled water 0 mg
[4] = Composition 2: HM30181A 15 mg, methylene chloride 350 mg, ethanol 150 mg, distilled water 0 mg
[5] = Composition 3: HM30181A 15 mg, methylene chloride 250 mg, ethanol 250 mg, distilled water 0 mg
[6] = Composition 5: HM30181A 15 mg, methylene chloride 350 mg, ethanol 150 mg, distilled water 25 mg

- Solubility [1, 3]: 10,260 ppm
- Solution appearance [1, 3]: Clouded
- Solubility [1, 4]: 20,370 ppm
- Solution appearance [1, 4]: Clouded
- Solubility [1, 5]: 4,710 ppm
- Solution appearance [1, 5]: Clouded
- Solubility [1, 6]: 27,850 ppm
- Solution appearance [1, 6]: Clear
- Solubility ([2]; solvent: acetone): 9.23 ppm
- Solubility ([2]; solvent: diethyl ether): 0.00 ppm
- Solubility ([2]; solvent: distilled water): 0.00 ppm
- Solubility ([2]; solvent: ethanol): 382.63 ppm
- Solubility ([2]; solvent: hexane): 0.05 ppm
- Solubility ([2]; solvent: isopropyl alcohol): 31.29 ppm
- Solubility ([2]; solvent: methanol): 10177.50 ppm
- Solubility ([2]; solvent: methylene chloride): 6848.28 ppm
Compound: COc1cc2c(cc1OC)CN(CCc1ccc(-n3nnc(-c4cc(OC)c(OC)cc4NC(=O)c4cc(=O)c5ccccc5o4)n3)cc1)CC2 [HM30181A, chromone-2-carboxylic acid [2-(2-{4-[2-(6,7-dimethoxy-3,4-di-hydro-1H-isoquinolin-2-yl)-ethyl]-phenyl}-2H-tetrazol-5-yl)-4,5-dimethoxyphenyl]amine mesylate]
